According to article PMC11366520, “Purification of angiotensin converting enzyme inhibitory peptides and antihypertensive effect generated from Indonesian traditional fermented beef (Cangkuk)” (Animal Bioscience, 2024):
Like-named read-outs stand apart in the source and are kept apart here. Residues, ends and D or L forms follow the SMILES beside them. No end group written: not given here.

How the values were obtained:
[1] = molecular target: T1, Angiotensin converting enzyme (from rabbit lung) (Oryctolagus cuniculus, UniProt P12822); assay: ACE-inhibitory activity, hippuric acid liberated from Hip-His-Leu (Cushman and Cheung, modified); type: biochemical; details: synthetic peptides, purity 80%, sodium borate buffer pH 8.3, Hip-His-Leu 7.6 mM, NaCl 608 mM, pre-incubation 5 min, incubation 30 min, 37°C, 228 nm
T1 construct: Angiotensin converting enzyme (from rabbit lung); purchased Sigma-Aldrich Co. (St. Louis, MO, USA); host or cells: rabbit lung (tissue-derived)
T1 sequence (P12822 34-1310): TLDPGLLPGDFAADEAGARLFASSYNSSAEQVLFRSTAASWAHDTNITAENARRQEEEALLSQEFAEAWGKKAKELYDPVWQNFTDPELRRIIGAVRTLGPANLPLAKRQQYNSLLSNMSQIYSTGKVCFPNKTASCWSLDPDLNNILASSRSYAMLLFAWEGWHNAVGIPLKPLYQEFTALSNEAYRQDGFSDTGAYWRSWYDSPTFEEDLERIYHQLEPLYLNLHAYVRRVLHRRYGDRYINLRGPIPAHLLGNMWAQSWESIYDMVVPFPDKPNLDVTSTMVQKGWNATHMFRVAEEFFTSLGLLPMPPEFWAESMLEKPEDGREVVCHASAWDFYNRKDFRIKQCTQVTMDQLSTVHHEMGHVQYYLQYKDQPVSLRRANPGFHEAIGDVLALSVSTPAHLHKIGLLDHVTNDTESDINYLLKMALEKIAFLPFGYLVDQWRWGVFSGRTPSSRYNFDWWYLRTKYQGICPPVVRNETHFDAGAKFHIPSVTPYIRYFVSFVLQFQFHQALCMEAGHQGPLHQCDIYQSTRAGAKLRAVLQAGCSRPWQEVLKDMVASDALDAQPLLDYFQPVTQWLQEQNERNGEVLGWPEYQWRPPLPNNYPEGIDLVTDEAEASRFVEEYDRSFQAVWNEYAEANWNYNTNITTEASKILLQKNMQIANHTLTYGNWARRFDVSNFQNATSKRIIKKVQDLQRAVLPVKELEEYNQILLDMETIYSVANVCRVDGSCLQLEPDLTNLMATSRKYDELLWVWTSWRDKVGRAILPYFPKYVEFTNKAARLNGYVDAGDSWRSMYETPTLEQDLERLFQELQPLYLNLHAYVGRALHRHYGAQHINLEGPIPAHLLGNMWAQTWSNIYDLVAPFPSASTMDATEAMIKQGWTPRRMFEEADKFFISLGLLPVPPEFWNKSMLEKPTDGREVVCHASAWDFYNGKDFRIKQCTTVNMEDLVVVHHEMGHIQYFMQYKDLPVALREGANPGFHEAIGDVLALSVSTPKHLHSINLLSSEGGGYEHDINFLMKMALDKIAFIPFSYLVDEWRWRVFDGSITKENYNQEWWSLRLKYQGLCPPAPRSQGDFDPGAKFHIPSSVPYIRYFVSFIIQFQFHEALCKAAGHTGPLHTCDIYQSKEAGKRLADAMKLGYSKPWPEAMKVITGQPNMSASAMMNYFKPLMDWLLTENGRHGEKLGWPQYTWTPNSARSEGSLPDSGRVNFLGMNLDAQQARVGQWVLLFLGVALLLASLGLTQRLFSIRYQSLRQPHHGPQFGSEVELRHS
From the text: The raw materials used in processing Cangkuk were fresh beef meat (brisket) from male Bali cattle, aged 2.5 to 3 years, purchased from the Animal Slaughtering House in Pekanbaru City. Green bamboo shoots were harvested from local farms. The additional ingredients were cooked rice, salt and distilled water. Angiotensin converting enzyme (from rabbit lung) and the substrate, hippuryl-L-histidyl-leucine, were purchased from Sigma-Aldrich Co. (St. Louis, MO, USA). All the chemicals and reagents used were of analytical grade.
ACE-inhibitory activity was analyzed according to the method of Cushman and Cheung with modifications by Arihara et al. This assay is based on liberation of hippuric acid from Hip-His-Leu catalyzed by ACE. A sample solution (15 μL) was mixed with 125 μL of a 100 mM sodium borate buffer (pH 8.3) containing 7.6 mM Hyp-Hys-Leu and 608 mM NaCl followed by pre-incubation for 5 min at 37°C. The reaction was initiated by adding 50 μL of ACE dissolved in distilled water, and the mixture was incubated for 30 min at 37°C. The reaction was stopped by adding 125 μL of 1 N HCl. […] Hippuric acid was dissolved with 1 mL of distilled water and its concentration spectrophotometrically determined at 228 nm. ACE inhibitory activity was calculated as: […]
where A, absorbance of the sample reaction; B, absorbance of the blank; and C, absorbance of the control (distilled water).

ACE = details: cited from earlier work; for IC50: read-out: IC50 value (ACE inhibition)
Experimental: According to a previous study, “Cangkuk” is made from fresh beef to which bamboo shoots, rice and salt are added. The treatment evaluated in the current research was addition of bamboo shoots with different preparation methods (chopped, ground, and extracted) and varied meat:bamboo shoot ratios (1:0.75, 1:1, and 1:1.25). Then, these preparations were fermented under anaerobic conditions at room temperature for seven days. It was reported that all treatments had ACE-inhibitory activities ranging from 43% to 80%. […] EAPLNPKANR, is a fragment of the 3rd to 12th amino acid sequence of LTEAPLNPKANREK [25]. […] The presence of hydrophobic amino acids such as isoleucine, valine, and glycine in the sequence has been associated with ACE-inhibitory activity.

SHRs = details: cited from earlier work
From the text: Meat and meat products are excellent sources of ACE-inhibitory peptides. ACE-inhibitory peptides from animal proteins can be produced by several methods, including enzymatic hydrolysis and fermentation. […] The higher the dose, the greater the decrease in SBPs. […] There is strong association between ACE inhibition and the antihypertensive effects of a bioactive peptide owing to its structure, size, chain length, type and order of amino acids ... || (+ 1 further places)

[2] = pepsin hydrolyzed peptides from porcine skeletal myosin B; ref [9]; cited from earlier work
From the text: Meat and meat products are excellent sources of ACE-inhibitory peptides. ACE-inhibitory peptides from animal proteins can be produced by several methods, including enzymatic hydrolysis and fermentation. […] The pepsin hydrolyzed peptide Lys-Arg-Val-Ile-Gln-Try and the Val-Lys-Ala-Gly-Ph sequence from por ...

Q: For CC[C@H](C)[C@H](N)C(=O)N[C@H](C(=O)NCC(=O)O)C(C)C [IVG] (H-Ile-Val-Gly-OH), which IC50 [1] is on record?
A: 97.3 µM

Q: For EAPLNPKANR [EAPLNPKANR], which IC50 [1] is on record?
A: 44.6 µM

Q: For IKEVTER, which “ACE-inhibitory activity (in words)” value (ACE; peptide from venison treated with pepsin-trypsin-pancreatin, ref [28]) is on record?
A: strong ACE-inhibitory activity

Q: Which “ACE inhibitory activity (in words)” value (ACE; tetrapeptide from Paralichthys olivaceus surimi, ref [31]) does the source give for “IVDR [tetrapeptide from Paralichthys olivaceus surimi]” here?
A: high ACE inhibitory activity

Q: And the “decrease of blood pressure in SHRs (in words)” value (SHRs; 6 h after administration, ref [31])?
A: could decrease blood pressure in SHRs 6 h after its administration

Q: For IVGRPRHQG, which IC50 (ACE; nonapeptide from Katsuobusi, ref [26]) is on record?
A: 6.2 µM

Q: Which “antihypertensive effect in SHRs (in words)” value (SHRs; alkaline-AK-pepsin hydrolyzed peptide from beef myofibrillar protein, ref [8]) does the source give for “LIVGIIRCV [nonapeptide from beef myofibrillar protein hydrolysate]” here?
A: had an antihypertensive effect in SHRs

Q: Which IC50 (ACE; peptide from goat meat hydrolysate (pepsin, trypsin, chymotrypsin), ref [25]) does the source give for LTEAPLNPKANREK here?
A: 120 µM

Q: For “Lys-Arg-Val-Ile-Gln-Try [pepsin hydrolyzed peptide from porcine skeletal myosin B]”, which “antihypertensive effects in vivo (in words)” value [2] is on record?
A: showed antihypertensive effects in vivo

Q: For Val-Lys-Ala-Gly-Ph, which “antihypertensive effects in vivo (in words)” value [2] is on record?
A: showed antihypertensive effects in vivo

Q: Which “reduction of SBP” value (SHRs; 100 mg/kg BW oral, SHRs, 4 h after administration, ref [33]) does the source give for WGAP here?
A: up to 42.6 mmHg
